Data from patent US20250290032A1, “DEVICE AND METHODS FOR ENGINEERING AND MEASURING FLATTENED 3D CELL CULTURES” (The Trustees of Indiana University, priority 2022, published 2025).

Legend:
[1] = test system: flattened spinal cord organoids (fSCOs); assay: MEA mean firing rate of flattened spinal cord organoids after capsaicin and short-term DAMGO; assay type: cell-based, human
Experimental: (§1) After 10 days of growing, the flattened organoids as developed in accordance with the present disclosure were put into contact with bottom electrodes for measuring electrical and neuron activity. Recording of the spinal cord organoids' electrical activity was performed by using the Axion Mestro Edge (Axion inc). The spinal cord organoids were kept at 37° C. maintained by an internal heater and infused with 5% CO2. To determine the mean firing rate of a spinal cord organoid, the 3-minute MEA recording was repeated 5 times. The final mean firing rate of the organoid was calculated as the average mean firing rate of the 3 most consistent recordings among the 5 recordings. To reduce the variation brought by adding substance, the medium was also refreshed before measuring mean firing rate baseline. The substance was first diluted into ScM IV at 2× of the desired concentration, then half of the medium was replaced with the 2× concentrated solution to reach the desired concentration.
Capsaicin, a transient receptor potential cation channel subfamily V member 1 (TRPV1) agonist, was applied to fSCOs to model pain responses. […] Next, capsaicin and different concentrations of DAMGO together to test the pain relief effects of different opioids doses. […] As the opioids doses increase, the fSCOs' firing rates decreased, and the organoids reached minimal firing rates when the concentration was higher than 1 μM.

[2] = test system: flattened spinal cord organoids (fSCOs); assay: Chronic opioid induced hyperalgesia model: 8-day DAMGO administration, MEA mean firing rate response to capsaicin; assay type: cell-based, human
Experimental: as §1
The fSCOs of the present disclosure were exposed to prolonged opioid administration to test the tolerance of the organoids to opioid induced hyperalgesia. The fSCOs were treated with DAMGO (500 nM) for 8 days and their responses to pain modulators were tested every other day. […] Organoids treated together with DAMGO and Naloxone, a μ-opioid receptor antagonist, were also tested to determine whether the Naloxone could reduce the opioid induced hyperalgesia.

[3] = target: T1, μ-opioid receptor (Homo sapiens, UniProt P35372); assay: Immunofluorescence staining of μ-opioid receptor expression after prolonged administration; assay type: cell-based; conditions: prolonged DAMGO treatment group (500 nM, 8 days)
T1 construct: confirm that the presence of neuron populations that express μ-opioid receptors; endogenous in cells; host or cells: flattened spinal cord organoids (fSCOs) derived from WA09 cells
T1 sequence (P35372 whole entry): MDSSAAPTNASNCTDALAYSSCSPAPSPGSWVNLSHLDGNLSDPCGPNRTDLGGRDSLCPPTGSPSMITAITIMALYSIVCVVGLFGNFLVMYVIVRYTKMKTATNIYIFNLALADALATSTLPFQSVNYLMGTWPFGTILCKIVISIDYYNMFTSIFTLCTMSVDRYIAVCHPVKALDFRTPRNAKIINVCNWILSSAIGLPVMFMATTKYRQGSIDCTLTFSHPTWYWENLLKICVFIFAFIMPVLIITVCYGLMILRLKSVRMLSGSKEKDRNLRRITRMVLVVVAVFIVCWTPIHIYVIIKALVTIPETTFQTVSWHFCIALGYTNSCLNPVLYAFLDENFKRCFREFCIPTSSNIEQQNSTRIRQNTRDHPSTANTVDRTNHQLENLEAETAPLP
Experimental: To first validate that the flattened organoids could be utilized to model pain relief, first immunofluorescence staining was used to confirm that the presence of neuron populations that express μ-opioid receptors. Sectioned samples were placed onto charged glass slides and washed three times with 1×PBS. The samples were then treated with 3N hydrochloric acid (HCl) for 15 minutes for antigen retrieval. Following HCl treatment, the samples were washed again twice with 1×PBS and subjected to blocking (0.3% Triton-X100, 5% normal goat serum in 1×PBS) for 1 hour, followed by primary antibody incubation in a humidified chamber at 4° C. overnight. The samples were then washed 3 times with 1×PBS followed by secondary antibody incubation at room temperature for 1 hour before being washed and coverslipped with gold anti-fade mounting medium containing DAPI (Invitrogen).

## COc1cc(CNC(=O)CCCC/C=C/C(C)C)ccc1O [Capsaicin]
[1]; Capsaicin
  % change From Baseline in Mean Firing Rate (Hz): −0.1%
[1]; capsaicin alone, fSCOs, MEA
  increase of mean firing rate of organoids after stimulation by capsaicin: 35.4%

## C[C@@H](NC(=O)[C@@H](N)Cc1ccc(O)cc1)C(=O)NCC(=O)N(C)[C@@H](Cc1ccccc1)C(=O)NCCO [DAMGO]
[1]; Capsaicin + 100 nM DAMGO
  % change From Baseline in Mean Firing Rate (Hz): +0.3%
[1]; Capsaicin + 500 nM DAMGO
  % change From Baseline in Mean Firing Rate (Hz): −0.2%
[1]; Capsaicin + 1 uM DAMGO
  % change From Baseline in Mean Firing Rate (Hz): −0.42%
[1]; Capsaicin + 10 uM DAMGO
  % change From Baseline in Mean Firing Rate (Hz): −0.4%
[1]; capsaicin together with DAMGO
  DAMGO concentration at which organoids reached minimal firing rates: higher than 1 μM
[1]; capsaicin together with minimal dose of DAMGO (100 nM)
  firing rate of spinal cord organoids versus baseline: dropped below baseline
[2]; after 8-day administration, Ctrl and DAMGO+Naloxone group
  firing rate versus baseline after capsaicin plus low dose of DAMGO (100 nM): reduce the firing rate below baseline
[2]; after 8-day administration, organoids in the DAMGO group (500 nM)
  DAMGO needed to eliminate pain activity and return to activity baseline: more than 1 μM
[2]; day 6 of DAMGO (500 nM) treatment, control 48%
  mean firing rate increase after capsaicin treatment: 73%
[2]; day 8 of DAMGO (500 nM) treatment, control 39%
  mean firing rate increase after capsaicin treatment: 93%
[2]; first 4 days of DAMGO (500 nM) treatment
  mean firing rate increase after capsaicin treatment versus control group: no significant difference
[3]
  μ-opioid receptor expression: downregulated
